The values that follow come from US9499519B2, “Fused pyrimidine compounds and use thereof” (Medivation Technologies, Inc., priority 2012, dated 2016).

Format in all cases: biochemical
One experiment deals with T1, IGF-1R (Homo sapiens, UniProt P08069).
T1 construct: purchased Millipore 14-802
The experiment in a line: In vitro IGF-1R enzymatic assay (ADP-Glo kinase assay). To be noted: activated IGF-1R, 1 μM, in duplicate; read-out: inhibition of binding. On the procedure: IC50 values of the compounds of the invention against IGF-1R and IR were measured in vitro using an ADP-Glo kinase assay Kit (Promega). […] Kinase reactions in both assays were conducted at 30° C. for 20 min with increasing concentrations of compounds of the invention.
Additional compounds of the invention were screened against activated IGF-1R.
(In general: In ADP-Glo the light output rises with the ADP produced.)

The next experiment has as its target Trk A (Homo sapiens, UniProt P04629). The experiment in a line: HotSpot kinase assay: Trk A. Particulars: 100 nM compound; for inhibition at 0.1 µM: read-out: % Enzyme Inhibition @ 100 nM Trk A. On the procedure: Kinase assays were performed using additional compounds against a panel of 3 kinases: Trk A; Trk B; and Trk C. Each compound was tested at a concentration of 0.1 μM in single duplicate mode against the 3 kinases. Compounds were prepared as 10 mM stock solutions in DMSO prior to use in the assay. […] IC50 values and curve fits were obtained using Prism (GraphPad Software). […]
The screening was performed using the “HotSpot” assay platform. The assay measures the conversion of a peptide substrate to ^33P-labelled phosphorylated product. Briefly, specific kinase/substrate pairs along with required cofactors were prepared in reaction buffer. Specifically, the substrate was prepared in reaction buffer (20 mM Hepes, pH 7.5; 10 mM MgCl2; 1 mM EGTA; 0.02% Brij35; 0.02 mg/mL BSA; 0.1 mM Na3VO4; 2 mM DTT; 1% DMSO), followed by delivery of any required cofactor to the resulting substrate solution. The corresponding kinase was delivered into the substrate solution and the reaction mixture was mixed gently. Compound was delivered into the reaction mixture, followed 15-20 minutes later by addition of a mixture of ATP (Sigma, St. Louis Mo.) and ^33P ATP (specific activity 0.01 μCi/μL final; Perkin Elmer, Waltham, Mass.) to a final concentration of 10 μM-30 μM to initiate the reaction. Reactions were carried out at room temperature for 120 minutes, followed by spotting of the reactions onto P81 ion exchange filter paper (Whatman #3698-915; Whatman Inc., Piscataway, N.J.). Unbound phosphate was removed by extensive washing of filters in 0.75% phosphoric acid. […] The percent of enzyme inhibition was calculated based on the percent of remaining kinase activity.

The target of a further experiment is Trk B (Homo sapiens, UniProt Q16620). Kind of experiment: HotSpot kinase assay: Trk B. Particulars: 100 nM compound; for inhibition at 0.1 µM: read-out: % Enzyme Inhibition @ 100 nM Trk B. On the procedure: (§1) Each compound was tested at a concentration of 0.1 μM in single duplicate mode against the 3 kinases. Compounds were prepared as 10 mM stock solutions in DMSO prior to use in the assay. […] IC50 values and curve fits were obtained using Prism (GraphPad Software).
Trk B, sequence (Q16620 32-822): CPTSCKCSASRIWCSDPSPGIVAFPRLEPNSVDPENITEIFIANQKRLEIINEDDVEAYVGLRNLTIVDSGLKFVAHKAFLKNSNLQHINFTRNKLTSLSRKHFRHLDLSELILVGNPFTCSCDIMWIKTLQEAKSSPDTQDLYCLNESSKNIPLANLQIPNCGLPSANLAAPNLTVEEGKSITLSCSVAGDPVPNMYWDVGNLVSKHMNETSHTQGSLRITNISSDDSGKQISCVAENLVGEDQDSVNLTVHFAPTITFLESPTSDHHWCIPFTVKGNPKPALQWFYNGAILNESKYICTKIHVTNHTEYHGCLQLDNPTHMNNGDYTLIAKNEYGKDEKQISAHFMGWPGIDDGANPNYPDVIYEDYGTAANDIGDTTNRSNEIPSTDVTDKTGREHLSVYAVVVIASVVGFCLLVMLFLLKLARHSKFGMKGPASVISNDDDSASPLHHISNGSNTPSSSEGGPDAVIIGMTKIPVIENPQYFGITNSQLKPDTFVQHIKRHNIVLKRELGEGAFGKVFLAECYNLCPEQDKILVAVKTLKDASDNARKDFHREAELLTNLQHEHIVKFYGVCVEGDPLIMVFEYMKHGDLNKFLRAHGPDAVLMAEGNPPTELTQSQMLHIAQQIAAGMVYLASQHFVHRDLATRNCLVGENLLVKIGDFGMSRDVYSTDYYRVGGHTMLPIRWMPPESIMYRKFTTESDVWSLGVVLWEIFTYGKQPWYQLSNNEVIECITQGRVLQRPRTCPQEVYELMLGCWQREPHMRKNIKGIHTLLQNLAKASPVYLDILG
(§2) The screening was performed using the “HotSpot” assay platform. The assay measures the conversion of a peptide substrate to ^33P-labelled phosphorylated product. Briefly, specific kinase/substrate pairs along with required cofactors were prepared in reaction buffer. Specifically, the substrate was prepared in reaction buffer (20 mM Hepes, pH 7.5; 10 mM MgCl2; 1 mM EGTA; 0.02% Brij35; 0.02 mg/mL BSA; 0.1 mM Na3VO4; 2 mM DTT; 1% DMSO), followed by delivery of any required cofactor to the resulting substrate solution. The corresponding kinase was delivered into the substrate solution and the reaction mixture was mixed gently. Compound was delivered into the reaction mixture, followed 15-20 minutes later by addition of a mixture of ATP (Sigma, St. Louis Mo.) and ^33P ATP (specific activity 0.01 μCi/μL final; Perkin Elmer, Waltham, Mass.) to a final concentration of 10 μM-30 μM to initiate the reaction. […] The percent of enzyme inhibition was calculated based on the percent of remaining kinase activity.

The target of another experiment is Trk C (Homo sapiens, UniProt Q16288). The experiment in a line: HotSpot kinase assay: Trk C. To be noted: 100 nM compound, HotSpot; for inhibition at 0.1 µM: read-out: % Enzyme Inhibition @ 100 nM Trk C. On the procedure: as §1, §2
Trk C, sequence (Q16288 32-839): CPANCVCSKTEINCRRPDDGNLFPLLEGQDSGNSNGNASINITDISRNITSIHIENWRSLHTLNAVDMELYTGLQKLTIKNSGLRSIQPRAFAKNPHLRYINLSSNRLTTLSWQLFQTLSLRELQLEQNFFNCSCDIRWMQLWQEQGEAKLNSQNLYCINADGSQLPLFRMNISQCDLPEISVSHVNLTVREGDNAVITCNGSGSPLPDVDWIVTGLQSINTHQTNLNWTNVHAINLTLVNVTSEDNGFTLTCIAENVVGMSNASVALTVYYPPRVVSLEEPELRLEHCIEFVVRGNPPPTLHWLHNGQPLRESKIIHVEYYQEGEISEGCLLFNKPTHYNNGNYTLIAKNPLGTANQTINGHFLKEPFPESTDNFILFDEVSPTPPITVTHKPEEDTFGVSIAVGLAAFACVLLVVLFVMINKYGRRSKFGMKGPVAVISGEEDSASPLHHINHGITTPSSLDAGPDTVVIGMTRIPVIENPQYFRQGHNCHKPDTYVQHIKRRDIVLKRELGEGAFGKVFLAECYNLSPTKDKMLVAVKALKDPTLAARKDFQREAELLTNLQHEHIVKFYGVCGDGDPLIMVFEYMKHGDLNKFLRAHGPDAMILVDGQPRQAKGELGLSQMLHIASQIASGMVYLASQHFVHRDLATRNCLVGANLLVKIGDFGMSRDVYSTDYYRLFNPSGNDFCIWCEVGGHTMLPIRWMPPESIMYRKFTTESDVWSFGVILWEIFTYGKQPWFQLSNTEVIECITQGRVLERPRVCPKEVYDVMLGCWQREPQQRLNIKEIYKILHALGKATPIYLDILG
Kinase assays were performed using additional compounds against a panel of 4 kinases: AXL; c-Met; c-Mer; and Trk C. Each compound was tested at a concentration of […] in single duplicate mode against the 4 kinases. Compounds were prepared as 10 mM stock solutions in DMSO prior to use in the assay. […] IC50 values and curve fits were obtained using Prism (GraphPad Software).

The next experiment deals with T2, IR (Homo sapiens, UniProt P06213).
T2 construct: purchased Millipore 14-803
T2 sequence (P06213 28-1382): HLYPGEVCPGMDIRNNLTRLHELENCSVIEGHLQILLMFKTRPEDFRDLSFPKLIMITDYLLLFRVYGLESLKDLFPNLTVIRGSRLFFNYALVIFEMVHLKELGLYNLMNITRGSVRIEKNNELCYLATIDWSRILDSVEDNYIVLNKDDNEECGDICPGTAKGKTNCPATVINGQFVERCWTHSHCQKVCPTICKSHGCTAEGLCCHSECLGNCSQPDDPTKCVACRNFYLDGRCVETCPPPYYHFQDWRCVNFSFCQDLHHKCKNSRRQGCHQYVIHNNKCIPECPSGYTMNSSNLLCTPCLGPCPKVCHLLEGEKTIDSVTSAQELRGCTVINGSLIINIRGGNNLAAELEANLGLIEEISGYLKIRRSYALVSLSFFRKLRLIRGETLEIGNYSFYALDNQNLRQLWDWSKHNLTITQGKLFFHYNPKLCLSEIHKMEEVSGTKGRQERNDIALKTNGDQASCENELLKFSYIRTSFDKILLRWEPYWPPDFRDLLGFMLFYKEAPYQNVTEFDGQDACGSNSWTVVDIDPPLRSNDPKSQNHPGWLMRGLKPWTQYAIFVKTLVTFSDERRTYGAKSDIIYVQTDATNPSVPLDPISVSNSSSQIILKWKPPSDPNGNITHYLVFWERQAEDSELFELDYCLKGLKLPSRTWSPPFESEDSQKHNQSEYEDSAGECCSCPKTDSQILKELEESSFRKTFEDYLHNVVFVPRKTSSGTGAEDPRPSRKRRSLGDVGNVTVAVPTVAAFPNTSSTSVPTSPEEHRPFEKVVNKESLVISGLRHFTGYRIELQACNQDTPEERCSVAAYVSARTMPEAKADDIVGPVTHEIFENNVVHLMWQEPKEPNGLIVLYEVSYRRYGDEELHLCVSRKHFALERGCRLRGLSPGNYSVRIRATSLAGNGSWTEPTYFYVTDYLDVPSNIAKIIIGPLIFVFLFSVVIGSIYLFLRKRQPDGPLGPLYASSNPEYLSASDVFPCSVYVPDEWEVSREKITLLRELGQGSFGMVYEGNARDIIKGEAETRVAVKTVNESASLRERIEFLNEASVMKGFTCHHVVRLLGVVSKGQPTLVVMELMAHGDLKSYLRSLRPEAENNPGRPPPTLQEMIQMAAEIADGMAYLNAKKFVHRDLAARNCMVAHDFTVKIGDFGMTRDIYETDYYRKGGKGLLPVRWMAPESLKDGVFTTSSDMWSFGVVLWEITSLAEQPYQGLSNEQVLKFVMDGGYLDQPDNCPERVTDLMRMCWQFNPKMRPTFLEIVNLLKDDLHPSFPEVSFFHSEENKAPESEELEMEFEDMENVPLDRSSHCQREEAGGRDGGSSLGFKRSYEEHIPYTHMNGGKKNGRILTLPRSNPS
Kind of experiment: In vitro IR enzymatic assay (ADP-Glo kinase assay). To be noted: activated IR, in duplicate, read-out: inhibition of binding.

Bounds are passed on as bounds.

T1 sequence (P08069 31-1367): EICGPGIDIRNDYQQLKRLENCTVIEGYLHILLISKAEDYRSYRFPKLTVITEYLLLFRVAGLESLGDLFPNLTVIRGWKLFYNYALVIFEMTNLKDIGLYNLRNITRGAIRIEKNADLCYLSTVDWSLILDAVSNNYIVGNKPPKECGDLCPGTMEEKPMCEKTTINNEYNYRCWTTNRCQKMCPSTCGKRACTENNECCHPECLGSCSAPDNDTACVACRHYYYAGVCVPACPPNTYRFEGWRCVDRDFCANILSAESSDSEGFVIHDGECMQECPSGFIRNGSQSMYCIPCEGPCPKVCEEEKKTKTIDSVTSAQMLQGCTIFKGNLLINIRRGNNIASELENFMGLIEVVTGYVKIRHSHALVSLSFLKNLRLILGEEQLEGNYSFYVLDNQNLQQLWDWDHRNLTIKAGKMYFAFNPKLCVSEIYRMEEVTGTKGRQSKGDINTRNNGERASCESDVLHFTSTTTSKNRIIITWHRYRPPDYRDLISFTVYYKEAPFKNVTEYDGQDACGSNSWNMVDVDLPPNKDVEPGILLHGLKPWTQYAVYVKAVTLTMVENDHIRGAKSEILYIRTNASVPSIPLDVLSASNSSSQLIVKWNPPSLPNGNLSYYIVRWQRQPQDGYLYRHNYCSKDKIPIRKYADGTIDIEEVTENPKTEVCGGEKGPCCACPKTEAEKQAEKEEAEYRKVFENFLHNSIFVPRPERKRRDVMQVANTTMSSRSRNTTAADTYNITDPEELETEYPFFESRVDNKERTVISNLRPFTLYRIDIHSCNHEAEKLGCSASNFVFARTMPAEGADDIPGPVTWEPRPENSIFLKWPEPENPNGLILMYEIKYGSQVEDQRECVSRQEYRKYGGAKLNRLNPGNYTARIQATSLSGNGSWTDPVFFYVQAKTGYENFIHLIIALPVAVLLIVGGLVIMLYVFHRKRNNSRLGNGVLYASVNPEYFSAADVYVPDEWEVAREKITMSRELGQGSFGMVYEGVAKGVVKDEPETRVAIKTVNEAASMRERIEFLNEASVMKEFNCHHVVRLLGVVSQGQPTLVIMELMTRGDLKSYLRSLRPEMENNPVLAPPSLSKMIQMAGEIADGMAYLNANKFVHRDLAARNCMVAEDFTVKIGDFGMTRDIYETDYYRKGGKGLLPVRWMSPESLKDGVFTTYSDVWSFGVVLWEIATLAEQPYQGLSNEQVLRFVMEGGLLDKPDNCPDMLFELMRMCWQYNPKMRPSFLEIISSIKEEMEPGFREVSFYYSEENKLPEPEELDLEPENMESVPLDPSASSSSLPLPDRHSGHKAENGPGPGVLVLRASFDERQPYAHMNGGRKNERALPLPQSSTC
Trk A, sequence (P04629 33-796): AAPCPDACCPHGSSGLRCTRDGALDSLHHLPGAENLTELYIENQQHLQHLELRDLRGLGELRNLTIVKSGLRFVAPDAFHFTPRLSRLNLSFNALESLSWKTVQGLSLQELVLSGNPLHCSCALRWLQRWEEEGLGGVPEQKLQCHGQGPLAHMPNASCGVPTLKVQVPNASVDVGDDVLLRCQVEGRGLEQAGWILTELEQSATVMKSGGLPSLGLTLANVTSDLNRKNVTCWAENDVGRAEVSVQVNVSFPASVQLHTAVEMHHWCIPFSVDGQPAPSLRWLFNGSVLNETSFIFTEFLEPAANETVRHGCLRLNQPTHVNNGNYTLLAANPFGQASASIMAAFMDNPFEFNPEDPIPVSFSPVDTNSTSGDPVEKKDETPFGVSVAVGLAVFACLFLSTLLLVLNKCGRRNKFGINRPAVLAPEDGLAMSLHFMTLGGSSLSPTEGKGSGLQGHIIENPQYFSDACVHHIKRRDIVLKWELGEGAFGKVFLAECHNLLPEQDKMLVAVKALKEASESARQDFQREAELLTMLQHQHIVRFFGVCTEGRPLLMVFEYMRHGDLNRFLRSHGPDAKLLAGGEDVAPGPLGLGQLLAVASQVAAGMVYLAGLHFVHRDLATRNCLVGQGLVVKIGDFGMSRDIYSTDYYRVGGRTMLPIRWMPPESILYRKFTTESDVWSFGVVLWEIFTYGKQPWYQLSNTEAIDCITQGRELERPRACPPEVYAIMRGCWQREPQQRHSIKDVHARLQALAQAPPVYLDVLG

For `CCN(CC)C(=O)C1CCCN1c1nc2c(c(Nc3cc(C4CCCC4)[nH]n3)n1)CCC2` (centres unmarked) [Compound 116a, 1-(4-(5-cyclopenxyl-1H-pyrazol-3-ylamino)-6,7-dihydro-5H-cyclopenta[d]pyrimidin-2-yl)-N,N-diethylpyrrolidine-2-carboxamide], the figures for the inhibition at 1 µM on IGF-1R and on IR were below 35% and at most 40%, respectively. Moreover, the inhibition at 0.1 µM on Trk A was below 39%; at Trk B it was above 60%; on Trk C, above 60%.

In the case of `O=C(C1CCCN1c1nc2c(c(Nc3cc(C4CCCCC4)[nH]n3)n1)CCC2)N1CCCCC1` (centres unmarked) [Compound 113a, (1-(4-(5-cyclohexyl-1H-pyrazol-3-ylamino)-6,7-dihydro-5H-cyclopenta[d]pyrimidin-2-yl)pyrrolidin-2-yl)(piperidin-1-yl)methanone], the values for the inhibition at 1 µM on IGF-1R and at IR were below 35% and at most 40%, respectively. The “% Enzyme Inhibition @ 100 nM Trk A” value on Trk A was “++ (Medium (40 to 59% inhibition, ++))”. In addition, the “% Enzyme Inhibition @ 100 nM Trk B” value on Trk B is on record as “+ (Low (39% or lower inhibition, +))”. Also, the “% Enzyme Inhibition @ 100 nM Trk C” value on Trk C is listed as “++ (Medium (40 to 59% inhibition, ++))”.

In the case of `CC(C)c1cc(Nc2nc(N3CC(O)CC3C(=O)N(C)C)nc3c2CCC3)n[nH]1` (centres unmarked) [Compound 109a, 4-hydroxy-1-(4-(5-isopropyl-1H-pyrazol-3-ylamino)-6,7-dihydro-5H-cyclopenta[d]pyrimidin-2-yl)-N,N-dimethylpyrrolidine-2-carboxamide], the inhibition at 1 µM at IGF-1R was below 35%; at IR, at most 40%. The inhibition at 0.1 µM on Trk A, on Trk B and at Trk C was below 39% throughout.

Consider `O=C(C1CCCN1c1nc2c(c(Nc3cc(C4CCCC4)[nH]n3)n1)CCC2)N1CCCC1` (centres unmarked) [Compound 112a, (1-(4-(5-cyclopentyl-1H-pyrazol-3-ylamino)-6,7-dihydro-5H-cyclopenta[d]pyrimidin-2-yl)pyrrolidin-2-yl)(pyrrolidin-1-yl)methanone], for which the inhibition at 1 µM is below 35% at IGF-1R and at most 40% on IR. Moreover, the inhibition at 0.1 µM at Trk A, at Trk B and on Trk C was above 60% each time.

In the case of `O=C(C1CC(O)CN1c1nc2c(c(Nc3cc(C4CCCC4)[nH]n3)n1)CCC2)N1CCCCC1` (centres unmarked) [Compound 108a, (1-(4-(5-cyclopentyl-1H-pyrazol-3-ylamino)-6,7-dihydro-5H-cyclopenta[d]pyrimidin-2-yl)-4-hydroxypyrrolidin-2-yl)(piperidin-1-yl)methanone], the inhibition at 1 µM at IGF-1R was below 35%; on IR, at most 40%. The “% Enzyme Inhibition @ 100 nM Trk A” value at Trk A is given as “+ (Low (39% or lower inhibition, +))”. For the same compound, the “% Enzyme Inhibition @ 100 nM Trk B” value at Trk B was “+++ (High (60% or higher inhibition, +++))”. Also, the “% Enzyme Inhibition @ 100 nM Trk C” value at Trk C is on record as “+++ (High (60% or higher inhibition, +++))”.

Consider `CN(C)C(=O)C1CCCN1c1nc2c(c(Nc3cc(C4CCCC4)[nH]n3)n1)CCC2` (centres unmarked) [Compound 115a, 1-(4-(5-cyclopentyl-1H-pyrazol-3-ylamino)-6,7-dihydro-5H-cyclopenta[d]pyrimidin-2-yl)-N,N-dimethylpyrrolidine-2-carboxamide], for which the inhibition at 1 µM on IGF-1R was below 35%; on IR, at most 40%. In addition, the inhibition at 0.1 µM was below 39% on Trk A, above 60% at Trk B and above 60% on Trk C.

For `O=C(C1CCCN1c1nc2c(c(Nc3cc(C4CCCC4)[nH]n3)n1)CCC2)N1CCCCC1` (centres unmarked) [Compound 111a, (1-(4-(5-cyclopentyl-1H-pyrazol-3-ylamino)-6,7-dihydro-5H-cyclopenta[d]pyrimidin-2-yl)pyrrolidin-2-yl)(piperidin-1-yl)methanone], the inhibition at 1 µM on IGF-1R was below 35%; at IR it was at most 40%. Besides, the inhibition at 0.1 µM at Trk A was 40 to 59%; at Trk B it was above 60%; at Trk C it was above 60%.

In general, inhibition refers to the percentage by which the read-out fell short of the control.
